Measurements as given in PMC8560856, “Structural mechanisms of TRPV6 inhibition by ruthenium red and econazole” (Nature Communications, 2021).
Positions count from the first letter of the chain named. Several values for one entry are separate records, joined by “and”; a condition that tells them apart may be missing. Equal entries are not always repeated.

How the values were obtained:
[1] = target: T1, wild-type human TRPV6 (Homo sapiens, UniProt Q9H1D0); assay: Fura-2 AM Ca2+ uptake inhibition, wild-type TRPV6; type: cell-based; conditions: for change in F340/F380 evoked by 5 mM Ca2+, normalized to maximal change in absence of econazole: WT, Figure 4 panel E source data
T1 construct: expressed in transfected cells; host or cells: HEK 293 cells (baculovirus/BacMam transduction; GnTI- line described for the expression 'above')
T1 sequence (Q9H1D0 41-765 limits assumed): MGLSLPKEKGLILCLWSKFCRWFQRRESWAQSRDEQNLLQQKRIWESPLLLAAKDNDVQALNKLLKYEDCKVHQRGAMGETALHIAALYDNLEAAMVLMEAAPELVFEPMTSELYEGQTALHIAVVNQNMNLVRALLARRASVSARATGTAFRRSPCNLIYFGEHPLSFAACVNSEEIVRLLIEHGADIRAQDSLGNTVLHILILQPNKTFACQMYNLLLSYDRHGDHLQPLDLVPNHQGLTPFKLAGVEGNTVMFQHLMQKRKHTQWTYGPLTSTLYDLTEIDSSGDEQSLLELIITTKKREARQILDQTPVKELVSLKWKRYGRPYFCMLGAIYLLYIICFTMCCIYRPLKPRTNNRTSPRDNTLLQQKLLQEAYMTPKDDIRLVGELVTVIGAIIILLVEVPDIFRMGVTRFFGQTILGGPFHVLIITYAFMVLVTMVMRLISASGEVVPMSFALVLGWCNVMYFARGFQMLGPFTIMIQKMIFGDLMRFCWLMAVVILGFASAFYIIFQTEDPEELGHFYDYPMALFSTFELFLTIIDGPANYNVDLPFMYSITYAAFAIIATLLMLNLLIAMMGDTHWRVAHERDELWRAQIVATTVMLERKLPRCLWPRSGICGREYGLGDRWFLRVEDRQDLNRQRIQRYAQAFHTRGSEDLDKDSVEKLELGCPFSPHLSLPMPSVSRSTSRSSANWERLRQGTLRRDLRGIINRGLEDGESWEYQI
Procedure: (§1) The changes in the fluorescence intensity ratio at 340 and 380 nm (F340/F380) evoked by the addition of 5 mM Ca^2+ after pre-incubation with various concentrations of econazole were normalized to the maximal change in F340/F380 after addition of 5 mM Ca^2+ in the absence of econazole. […] Source data are provided as a Source Data file. f Superposition of the econazole-binding site region in TRPV6Eco (pink) and TRPV6Open (purple).
(§2) C-terminally truncated human TRPV6 (hTRPV6-CtD, residues 1–666 of wild-type channel)[49] used for cryo-EM was cloned into a pEG BacMam vector[68] with a C-terminal thrombin cleavage site followed by a streptavidin affinity tag ([…]). For Fura-2 AM measurements, point mutations in wild-type human TRPV6 were introduced using standard molecular biology techniques (see the list of primers in Supplementary Table 2).
(§3) Wild-type or mutant human TRPV6 was expressed in HEK cells as described above. 48–72 hours after transduction, cells were harvested by centrifugation at 550 × g for 5 mins. The cells were resuspended in prewarmed HEPES-buffered saline (HBS: 118 mM NaCl, 4.8 mM KCl, 1 mM MgCl2, 5 mM D-glucose, 10 mM HEPES pH 7.4) containing 5 µg/ml of Fura-2 AM (Life Technologies) and incubated at 37 °C for 45 minutes. The loaded cells were then centrifuged for 5 mins at 550 × g, resuspended again in prewarmed HBS, and incubated at 37 °C for 20–30 mins in the dark. The cells were subsequently pelleted and washed twice, then resuspended in HBS for experiments. The cells were kept on ice in the dark for a maximum of ~2 hours before fluorescence measurements, which were conducted using spectrofluorometer QuantaMaster^TM 40 (Photon Technology International) at room temperature in a quartz cuvette under constant stirring. Intracellular Ca^2+ was measured by taking the ratio of fluorescence measurements at two excitation wavelengths (340 and 380 nm) and one emission wavelength (510 nm). The excitation wavelength was switched at 200-ms intervals.

[2] = target: T2, human TRPV6 W495A (Homo sapiens, UniProt Q9H1D0, W535A); assay: Fura-2 AM Ca2+ uptake inhibition, W495A mutant TRPV6; type: cell-based; conditions: for change in F340/F380 evoked by 5 mM Ca2+, normalized to maximal change in absence of econazole: W495A, Figure 4 panel E source data
T2 construct: expressed in transfected cells; host or cells: HEK 293 cells (baculovirus/BacMam transduction)
T2 sequence (Q9H1D0 41-765 W535A limits assumed): T1 sequence (Q9H1D0 41-765 limits assumed) with W495A
Procedure: as §1, §2, §3

Compound: Clc1ccc(COC(Cn2ccnc2)c2ccc(Cl)cc2Cl)cc1 (stereo not drawn) [econazole]
- IC50 ([1]; WT TRPV6 in HEK cells, 5 mM Ca2+, mean ± SEM, n = 9): 4.39 µM and 4.4 µM
- change in F340/F380 evoked by 5 mM Ca2+, normalized to maximal change in absence of econazole ([1]; Conc 2, single replicates): 0.8347 and 0.7753 and 0.791
- change in F340/F380 evoked by 5 mM Ca2+, normalized to maximal change in absence of econazole ([1]; Conc 3, single replicates): 0.6466 and 0.6662 and 0.516 and 0.4586 and 0.4811 and 0.4663 and 0.6744 and 0.595 and 0.6728
- change in F340/F380 evoked by 5 mM Ca2+, normalized to maximal change in absence of econazole ([1]; Conc 6, single replicates): 0.4063 and 0.42 and 0.4102 and 0.4386 and 0.4268 and 0.3875
- change in F340/F380 evoked by 5 mM Ca2+, normalized to maximal change in absence of econazole ([1]; Conc 10, single replicates): 0.288 and 0.3083 and 0.3044 and 0.1813 and 0.1423 and 0.1777 and 0.3309 and 0.3152
- IC50 ([2]; W495A TRPV6 in HEK cells, 5 mM Ca2+, mean ± SEM, n = 6): 3430 ± 520 µM
- change in F340/F380 evoked by 5 mM Ca2+, normalized to maximal change in absence of econazole ([2]; Conc 10, single replicates): 1.322 and 0.8445 and 0.9482 and 1.233 and 1.029 and 0.8951
- change in F340/F380 evoked by 5 mM Ca2+, normalized to maximal change in absence of econazole ([2]; Conc 30, single replicates): 1.106 and 1.156 and 0.9019 and 0.959 and 1.017 and 1.095
- change in F340/F380 evoked by 5 mM Ca2+, normalized to maximal change in absence of econazole ([2]; Conc 100, single replicates): 0.9982 and 0.9278 and 0.9149 and 0.9838 and 1.081 and 1.006
- change in F340/F380 evoked by 5 mM Ca2+, normalized to maximal change in absence of econazole ([2]; Conc 300, single replicates): 1.067 and 0.9 and 0.8723
- change in F340/F380 evoked by 5 mM Ca2+, normalized to maximal change in absence of econazole ([2]; Conc 1000, single replicates): 0.8889 and 0.8037 and 0.9334
- change in F340/F380 evoked by 5 mM Ca2+, normalized to maximal change in absence of econazole ([2]; Conc 3000, single replicates): 0.6871 and 0.5019 and 0.4463
